The values that follow come from ChEMBL document CHEMBL1158258, “Bioactive Isoquinoline Quinone from an Undescribed Philippine Marine Sponge of the Genus Xestospongia” (J Nat Prod, 1996).

In brackets after ≈: the same amount, converted by molar mass. Activity calls are given as the source filed them. No cut-off for these calls is given here.

One test concerns Bacillus subtilis. Put plainly: Antibacterial activity against Bacillus subtilis 168 at 100 ug after 24 hrs by agar plate diffusion assay. The class given is functional. Particulars: for zone of inhibition at 100 µg/disc: subsp. subtilis str. 168, 24 h, read-out: IZ.
For a further test, the system named is Escherichia coli. Put plainly: Antibacterial activity against Escherichia coli ATCC 25922 at 100 ug after 24 hrs by agar plate diffusion assay. The class given is functional, organism-based.
The test system of a further test is Staphylococcus aureus. In words: Antibacterial activity against Staphylococcus aureus ATCC 25923 at 100 ug after 24 hrs by agar plate diffusion assay. The format is functional. The conditions noted are these: ATCC 25923, 24 h, read-out: IZ.
For test [1], the system named is Spodoptera littoralis. Put plainly: Insecticidal activity against Spodoptera littoralis neonate larvae assessed as survival at 270 ppm in artificial diet after 6 days relative to control. The format is functional.
Test [2] relates to Spodoptera littoralis. Put plainly: Insecticidal activity against Spodoptera littoralis neonate larvae assessed as survival treated with artificial diet after 6 days. The format is functional, organism-based.

As for `C/C=C(/C)C(=O)OCc1nccc2c1C(=O)C(OC)=C(C)C2=O` [RENIERONE], the zone of inhibition at 100 µg/disc in the test on Bacillus subtilis is 15 mm; in the test with Staphylococcus aureus it was 14 mm. In addition, in the test on Escherichia coli, the outcome was inactive. In addition, the Activity in the test on Spodoptera littoralis [1] was 60%.
Regarding GENTAMICIN, in the test on Bacillus subtilis (subsp. subtilis str. 168), the inhibition zone (IZ) was found to be 16 mm.
`C/C=C(/C)C(=O)OCC1C2=C(C=CN1/C=C/C(C)=O)C(=O)C(C)=C(OC)C2=O` (stereo not given): the zone of inhibition at 100 µg/disc with Bacillus subtilis and in the test with Staphylococcus aureus was 15 mm in each case. Besides, in the test on Escherichia coli, the result was inactive. The Activity with Spodoptera littoralis [1] is 50%.
In the case of `COC1=C(C)C(=O)c2ccnc(C)c2C1=O`, the zone of inhibition at 100 µg/disc with Bacillus subtilis amounted to 12 mm; in the test with Staphylococcus aureus it was 9 mm. In addition, the outcome in the test on Escherichia coli was inactive. For the same compound, the Activity in the test on Spodoptera littoralis [1] came out at 93%. The EC50 with Spodoptera littoralis [2] came out at 35 ppm. Besides, the LC50 in the test with Spodoptera littoralis [2] (Spodoptera littoralis, 144 h) worked out at 521 µg/mL (≈ 2400 µM).

One may read the LC50 as the concentration that kills 50% of the test population.
